Each cell line was assayed with CN1CCN(CC1)C2=CC(=C(C=C2)NC3=NC(=C(S3)C(=O)C4=C(C=CC=C4Cl)Cl)N)OC [XMD14-99] (assay: relative viability (nuclei count vs DMSO), 5 days (fraction); higher = more cells survive). Details: 0.08 µM.
In short: (§1)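 A plate was accepted only when its control CV was below 25% and the cells had doubled at least once. Viability is defined from nuclear counts as treated wells divided by vehicle wells, with the median taken across plates. That median covers lung cancer cell lines grown in 1536-well plates, dosed by pinning at five √10-spaced library-drug concentrations, and counted in MetaXpress from 4× Hoechst images after 5 days.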

Cell Line | relative viability
Calu-6 | 0.937
HCC-366 | 0.988
NCI-H1666 | 1
NCI-H647 | 0.981
LK-2 | 0.914
NCI-H2126 | 0.993
SK-MES-1 | 1.02
H3255 | 0.955
COR-L23 | 1.04
COR-L 105 | 0.852
IA-LM | 0.947
LOU-NH91 | 1.06
NCI-H2170 | 0.97
NCI-H3122 | 1
HOP-62 | 1.01
HCC-44 | 1.04
A549 | 0.955
LU99A | 0.982

Cell Line | relative viability
BEN | 0.969
HARA | 0.894
HCC-78 | 0.985
LCLC-97TM1 | 0.982
NCI-H2023 | 0.961
A-427 | 1.05
NCI-H460 | 1.02
NCI-H727 | 1.03
NCI-H1734 | 0.969
NCI-H520 | 0.903
NCI-H2405 | 0.962
SW 1573 | 0.964
NCI-H1395 | 0.981
201T | 0.993
NCI-H1915 | 0.991
HCC-827 | 1.06
LXF-289 | 1.02

Same assay, conditions: 0.8 µM

Cell Line | relative viability
Calu-6 | 0.932
HCC-366 | 0.996
NCI-H1666 | 0.922
NCI-H647 | 0.99
LK-2 | 1.04
NCI-H2126 | 0.991
SK-MES-1 | 0.994
H3255 | 0.957
COR-L23 | 0.891
COR-L 105 | 1.14
IA-LM | 0.86
LOU-NH91 | 0.922
NCI-H2170 | 1.01
NCI-H3122 | 0.995
HOP-62 | 1
HCC-44 | 0.969
A549 | 0.97
LU99A | 1.03

Cell Line | relative viability
BEN | 0.988
HARA | 0.947
HCC-78 | 0.841
LCLC-97TM1 | 1
NCI-H2023 | 0.875
A-427 | 0.939
NCI-H460 | 0.965
NCI-H727 | 0.815
NCI-H1734 | 0.969
NCI-H520 | 0.96
NCI-H2405 | 1.02
SW 1573 | 0.939
NCI-H1395 | 0.951
201T | 0.986
NCI-H1915 | 0.958
HCC-827 | 0.972
LXF-289 | 0.964

Same assay, conditions: 2.53 µM

Cell Line | relative viability
Calu-6 | 0.936
HCC-366 | 1.01
NCI-H1666 | 0.999
NCI-H647 | 0.92
LK-2 | 1.09
NCI-H2126 | 0.977
SK-MES-1 | 0.976
H3255 | 0.802
COR-L23 | 0.946
COR-L 105 | 0.706
IA-LM | 0.758
LOU-NH91 | 0.898
NCI-H2170 | 0.995
NCI-H3122 | 0.892
HOP-62 | 0.993
HCC-44 | 1.02
A549 | 0.898
LU99A | 0.896

Cell Line | relative viability
BEN | 0.961
HARA | 0.701
HCC-78 | 0.883
LCLC-97TM1 | 0.828
NCI-H2023 | 0.953
A-427 | 0.866
NCI-H460 | 0.954
NCI-H727 | 0.846
NCI-H1734 | 0.922
NCI-H520 | 0.932
NCI-H2405 | 0.964
SW 1573 | 1
NCI-H1395 | 0.997
201T | 0.99
NCI-H1915 | 0.91
HCC-827 | 0.961
LXF-289 | 0.976

Same assay, conditions: 8 µM

Cell Line | relative viability
Calu-6 | 0.785
HCC-366 | 0.894
NCI-H1666 | 0.877
NCI-H647 | 0.819
LK-2 | 0.913
NCI-H2126 | 0.897
SK-MES-1 | 0.664
H3255 | 0.684
COR-L23 | 0.693
COR-L 105 | 0.718
IA-LM | 0.472
LOU-NH91 | 0.829
NCI-H2170 | 0.925
NCI-H3122 | 0.694
HOP-62 | 0.868
HCC-44 | 0.948
A549 | 0.726
LU99A | 0.8

Cell Line | relative viability
BEN | 0.801
HARA | 0.692
HCC-78 | 0.571
LCLC-97TM1 | 0.571
NCI-H2023 | 0.71
A-427 | 0.643
NCI-H460 | 0.841
NCI-H727 | 0.567
NCI-H1734 | 0.754
NCI-H520 | 0.818
NCI-H2405 | 0.726
SW 1573 | 0.834
NCI-H1395 | 0.695
201T | 0.804
NCI-H1915 | 0.796
HCC-827 | 0.881
LXF-289 | 0.889

These cell lines were tested with N[C@@H]1CCCN(c2c(/C=C3\SC(=O)NC3=O)cccc2-c2ccccc2)C1 [AZD1208] in the same assay as above. Details: 0.08 µM.
In short: as §1

Cell Line | relative viability
Calu-6 | 1
HCC-366 | 1
NCI-H1666 | 0.992
NCI-H647 | 1.02
LK-2 | 0.882
NCI-H2126 | 0.998
SK-MES-1 | 0.979
H3255 | 1.04
COR-L23 | 0.969
COR-L 105 | 0.837
IA-LM | 0.951
LOU-NH91 | 1.02
NCI-H2170 | 0.99
NCI-H3122 | 0.994
HOP-62 | 1.09
HCC-44 | 1.11
A549 | 0.957

From the supplement of paper PMC10307832
